In US20260062422A1 (Halda Therapeutics OpCo, Inc., priority 2022, published 2026):

Columns and labels:
VCaP cells = assay: Cellular growth inhibition assay for VCaP cells, CellTiter-Glo; format: cell-based, human; settings: Homo sapiens, VCaP, 72 h, 72 hours treatment, CellTiter-Glo 2.0
Summary of the method: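 GI50 values come from four-parameter curve fits of luminescence data normalized to a zero baseline. Compound, in medium with 0.5% DMSO, was added one day after plating and left for 72 h before CellTiter-Glo 2.0 addition.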

[1] = tested on: T-Rex 293 cell line SC3 cells lacking increased expression of androgen receptor protein; assay: Cellular growth inhibition, T-Rex 293 SC3 cells without doxycycline, CellTiter-Glo; format: cell-based; settings: 72 h, T-Rex 293 SC3 cells not exposed to doxycycline, CellTiter-Glo 2.0
Summary of the method: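 Growth inhibition was compared in a T-Rex 293 clone with and without doxycycline (10 ng/mL)-driven androgen receptor overexpression. Compounds were applied for 72 h in hormone-depleted serum, and GI50 came from four-parameter curves of CellTiter-Glo signal.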

Structure (SMILES) | GI50 (VCaP cells) | GI50 [1]
Cc1sc2c(c1C)C(c1ccc(Cl)cc1)=N[C@@H](CC(=O)NCCOCCOCCOCC1CN(c3ncc(C(=O)N[C@H]4C(C)(C)[C@H](Oc5ccc(C#N)c(Cl)c5)C4(C)C)cn3)C1)c1nnc(C)n1-2 [Compound I-18] | < 500 nM | 1500 to 3000 nM
CCNC(=O)C[C@@H]1N=C(c2ccc(N(C)C3CN(CC4CCN(c5ncc(C(=O)N[C@H]6C(C)(C)[C@H](Oc7ccc(C#N)c(Cl)c7)C6(C)C)cn5)CC4)C3)cc2)c2c(sc(C)c2C)-n2c(C)nnc21 [Compound I-119] | 500 to 1500 nM | 500 to 1500 nM
Cc1sc2c(c1C)C(c1ccc(Cl)cc1)=N[C@H](CC(=O)NCCOCCOCCOCCOC1CCN(c3ncc(C(=O)N[C@H]4C(C)(C)[C@H](Oc5ccc(C#N)c(Cl)c5)C4(C)C)cn3)CC1)c1nnc(C)n1-2 [Compound I-13] | > 3000 nM | > 3000 nM
CCNC(=O)C[C@@H]1N=C(c2ccc(OC3CCN(c4ncc(C(=O)N[C@H]5C(C)(C)[C@H](Oc6ccc(C#N)c(Cl)c6)C5(C)C)cn4)CC3)cc2)c2c(sc(C)c2C)-n2c(C)nnc21 [Compound I-61] | 500 to 1500 nM | 1500 to 3000 nM
Cc1sc2c(c1C)C(c1ccc(Cl)cc1)=N[C@@H](CC(=O)NCCCCCCCOC1CCN(c3ncc(C(=O)N[C@H]4C(C)(C)[C@H](Oc5ccc(C#N)c(Cl)c5)C4(C)C)cn3)CC1)c1nnc(C)n1-2 [Compound I-24] | < 500 nM | > 3000 nM
CCN(C)C(=O)C[C@@H]1N=C(c2ccc(OCCOC3CCN(c4ncc(C(=O)N[C@H]5C(C)(C)[C@H](Oc6ccc(C#N)c(Cl)c6)C5(C)C)cn4)CC3)cc2)c2c(sc(C)c2C)-n2c(C)nnc21 [Compound I-66] | < 500 nM | < 500 nM
CCNC(=O)C[C@@H]1N=C(c2ccc(OCCOC3CCN(c4ncc(C(=O)N[C@H]5C(C)(C)[C@H](Oc6ccc(C#N)c(Cl)c6)C5(C)C)cn4)CC3)cc2F)c2c(sc(C)c2C)-n2c(C)nnc21 [Compound I-75] | < 500 nM | 500 to 1500 nM
CCNC(=O)C[C@@H]1N=C(c2ccc(OC3CCN(C4CCN(c5ncc(C(=O)N[C@H]6C(C)(C)[C@H](Oc7ccc(C#N)c(Cl)c7)C6(C)C)cn5)CC4)C3)cc2)c2c(sc(C)c2C)-n2c(C)nnc21 (some centres unmarked) [Compound I-85] | < 500 nM | > 3000 nM
Cc1sc2c(c1C)C(c1ccc(OCCOC3CCN(c4ncc(C(=O)N[C@H]5C(C)(C)[C@H](Oc6ccc(C#N)c(Cl)c6)C5(C)C)cn4)CC3)cc1)=N[C@@H](CC(=O)OC(C)(C)C)c1nnc(C)n1-2 [Compound I-235, tert-butyl 2-((S)-4-(4-(2-((1-(5-(((1r,3r)-3-(3-chloro-4-cyanophenoxy)-2,2,4,4-tetramethylcyclobutyl)carbamoyl)pyrimidin-2-yl)piperidin-4-yl)oxy)ethoxy)phenyl)-2,3,9-trimethyl-6H-thieno[3,2-f][1,2,4]triazolo[4,3-a][1,4]diazepin-6-yl)acetate] | < 500 nM | > 3000 nM
Cc1sc2c(c1C)C(c1ccc(CCCOC3CCN(c4ncc(C(=O)N[C@H]5C(C)(C)[C@H](Oc6ccc(C#N)c(Cl)c6)C5(C)C)cn4)CC3)cc1)=N[C@@H](CC(=O)NC(C)C)c1nnc(C)n1-2 [Compound I-100] | 500 to 1500 nM | > 3000 nM
Cc1sc2c(c1C)C(c1ccc(Cl)cc1)=N[C@@H](CC(=O)NCCOCCOCCOCCOCCOCCOCCN(C)c1ncc(C(=O)N[C@H]3C(C)(C)[C@H](Oc4ccc(C#N)c(Cl)c4)C3(C)C)cn1)c1nnc(C)n1-2 [Compound I-4] | < 500 nM | > 3000 nM
CCNC(=O)C[C@@H]1N=C(c2ccc(OCC3CN(c4ncc(C(=O)N[C@H]5C(C)(C)[C@H](Oc6ccc(C#N)c(Cl)c6)C5(C)C)cn4)C3)cc2)c2c(sc(C)c2C)-n2c(C)nnc21 [Compound I-71] | < 500 nM | 500 to 1500 nM
Cc1sc2c(c1C)C(c1ccc(N3CC(C4CCN(c5ncc(C(=O)N[C@H]6C(C)(C)[C@H](Oc7ccc(C#N)c(Cl)c7)C6(C)C)cn5)CC4)C3)cc1)=N[C@@H](C)c1nnc(C)n1-2 [Compound I-271] | > 3000 nM | > 3000 nM
Cc1sc2c(c1C)C(c1ccc(N3CC(CC4CCN(c5ncc(C(=O)N[C@H]6C(C)(C)[C@H](Oc7ccc(C#N)c(Cl)c7)C6(C)C)cn5)CC4)C3)cc1)=N[C@@H](C)c1nnc(C)n1-2 [Compound I-270] | 1500 to 3000 nM | > 3000 nM
CCNC(=O)C[C@@H]1N=C(c2ccc(CCCN(C)c3ncc(C(=O)N[C@H]4C(C)(C)[C@H](Oc5ccc(C#N)c(Cl)c5)C4(C)C)cn3)cc2)c2c(sc(C)c2C)-n2c(C)nnc21 [Compound I-104] | > 3000 nM | < 500 nM
COCC[C@@H]1N=C(c2ccc(CCCOC3CCN(c4ncc(C(=O)N[C@H]5C(C)(C)[C@H](Oc6ccc(C#N)c(Cl)c6)C5(C)C)cn4)CC3)cc2)c2c(sc(C)c2C)-n2c(C)nnc21 [Compound I-227, N-[3-(3-chloro-4-cyano-phenoxy)-2,2,4,4-tetramethyl-cyclobutyl]-2-[4-[3-[4-[(9S)-9-(2-methoxyethyl)-4,5,13-trimethyl-3-thia-1,8,11,12-tetrazatricyclo[8.3.0.02,6]trideca-2(6),4,7,10,12-pentaen-7-yl]phenyl]propoxy]-1-piperidyl]pyrimidine-5-carboxamide] | > 3000 nM | 500 to 1500 nM

Continued, in another order:

GI50 (VCaP cells) | Structure (SMILES) | GI50 [1]
< 500 nM | Cc1sc2c(c1C)C(c1ccc(N3CC(C4CCN(c5ncc(C(=O)N[C@H]6C(C)(C)[C@H](Oc7ccc(C#N)c(Cl)c7)C6(C)C)cn5)CC4)C3)cc1)=NC(Cc1ncco1)c1nnc(C)n1-2 (some centres unmarked) [Compound I-209] | > 3000 nM
500 to 1500 nM | CCNC(=O)C[C@@H]1N=C(c2ccc(Oc3ncc(C(=O)N[C@H]4C(C)(C)[C@H](Oc5ccc(C#N)c(Cl)c5)C4(C)C)cn3)cc2)c2c(sc(C)c2C)-n2c(C)nnc21 [Compound I-84] | 1500 to 3000 nM
< 500 nM | CCNC(=O)C[C@@H]1N=C(c2ccc(N(C3CC3)C3CN(CC4CCN(c5ncc(C(=O)N[C@H]6C(C)(C)[C@H](Oc7ccc(C#N)c(Cl)c7)C6(C)C)cn5)CC4)C3)cc2)c2c(sc(C)c2C)-n2c(C)nnc21 [Compound I-129] | 1500 to 3000 nM
500 to 1500 nM | CCNC(=O)C[C@@H]1N=C(c2ccc(N(C)CCN3CCN(c4ncc(C(=O)N[C@H]5C(C)(C)[C@H](Oc6ccc(C#N)c(Cl)c6)C5(C)C)cn4)CC3)cc2)c2c(sc(C)c2C)-n2c(C)nnc21 [Compound I-108] | < 500 nM
500 to 1500 nM | CCNC(=O)C[C@@H]1N=C(c2ccc(OCCCCc3ncc(C(=O)N[C@H]4C(C)(C)[C@H](Oc5ccc(C#N)c(Cl)c5)C4(C)C)cn3)cc2)c2c(sc(C)c2C)-n2c(C)nnc21 [Compound I-86] | 1500 to 3000 nM
< 500 nM | Cc1sc2c(c1C)C(c1ccc(OC3CC4(CCN(c5ncc(C(=O)N[C@H]6C(C)(C)[C@H](Oc7ccc(C#N)c(Cl)c7)C6(C)C)cn5)CC4)C3)cc1)=N[C@@H](Cc1ncco1)c1nnc(C)n1-2 [Compound I-49, N-[3-(3-chloro-4-cyano-phenoxy)-2,2,4,4-tetramethyl-cyclobutyl]-2-[2-[4-[(9S)-4,5,13-trimethyl-9-(oxazol-2-ylmethyl)-3-thia-1,8,11,12-tetrazatricyclo[8.3.0.02,6]trideca-2(6),4,7,10,12-pentaen-7-yl]phenoxy]-7-azaspiro[3.5]nonan-7-yl]pyrimidine-5-carboxamide] | < 500 nM
500 to 1500 nM | CCNC(=O)C[C@@H]1N=C(c2ccc(N3CCC(CN4CC(Oc5ncc(C(=O)N[C@H]6C(C)(C)[C@H](Oc7ccc(C#N)c(Cl)c7)C6(C)C)cn5)C4)CC3)cc2)c2c(sc(C)c2C)-n2c(C)nnc21 [Compound I-124] | 1500 to 3000 nM
500 to 1500 nM | CCNC(=O)C[C@@H]1N=C(c2ccc(OCCCC#Cc3ncc(C(=O)N[C@H]4C(C)(C)[C@H](Oc5ccc(C#N)c(Cl)c5)C4(C)C)cn3)cc2)c2c(sc(C)c2C)-n2c(C)nnc21 [Compound I-83] | 500 to 1500 nM
500 to 1500 nM | CCNC(=O)C[C@@H]1N=C(c2cccc(OCCOC3CCN(c4ncc(C(=O)N[C@H]5C(C)(C)[C@H](Oc6ccc(C#N)c(Cl)c6)C5(C)C)cn4)CC3)c2)c2c(sc(C)c2C)-n2c(C)nnc21 [Compound I-46, N-((1r,3r)-3-(3-chloro-4-cyanophenoxy)-2,2,4,4-tetramethylcyclobutyl)-2-(4-(2-(3-((S)-6-(2-(ethylamino)-2-oxoethyl)-2,3,9-trimethyl-6H-thieno[3,2-f][1,2,4]triazolo[4,3-a][1,4]diazepin-4-yl)phenoxy)ethoxy)piperidin-1-yl)pyrimidine-5-carboxamide] | 500 to 1500 nM
1500 to 3000 nM | Cc1sc2c(c1C)C(c1cccc(OCCOCCOC3CCN(c4ncc(C(=O)N[C@H]5C(C)(C)[C@H](Oc6ccc(C#N)c(Cl)c6)C5(C)C)cn4)CC3)c1)=N[C@@H](CC(=O)O)c1nnc(C)n1-2 [Compound I-42] | > 3000 nM
< 500 nM | Cc1sc2c(c1C)C(c1ccc(C[C@H]3C[C@@H]([C@@H]4CCCN(c5ncc(C(=O)N[C@H]6C(C)(C)[C@H](Oc7ccc(C#N)c(Cl)c7)C6(C)C)cn5)C4)C3)cc1)=N[C@@H](Cc1ncco1)c1nnc(C)n1-2 [Compound I-161] | 500 to 1500 nM
> 3000 nM | Cc1sc2c(c1C)C(c1ccc(CCC3CC4(CCCN(c5ncc(C(=O)N[C@H]6C(C)(C)[C@H](Oc7ccc(C#N)c(Cl)c7)C6(C)C)cn5)C4)C3)cc1)=N[C@@H](Cc1ncco1)c1nnc(C)n1-2 [Compound I-241] | < 500 nM
